The values that follow come from patent EP0482717A1, “Use of a benzo[b]thiophene-2-carboximidamide derivative against heart failure” (Akzo Nobel N.V., priority 1990, dated 1992).

Marks after values point to notes of the source that are not given here.

Common to all, as to format: in vivo
For one data set, the system named is conscious dog. The data set can be described thus: Left ventricular contractility (LV dP/dt), emesis and restlessness after oral administration to conscious dogs. From the text:
(§1) Related compounds with positive inotropic activity have been disclosed in European patent 158,380.
(§2) The pharmacological results after oral administration of compounds I (this invention) vs. compounds II and III (EP 158,380), are depicted in table I (cat) and table II (dog).

The subject of another data set is anaesthetized cat. The data set is described as follows: Left ventricular contractility (LV dP/dt) after oral administration (by gavage) to anaesthetized cats. As to conditions: for potency at increasing left ventricular contractility (LV dP/dt): administered orally (by gavage), compounds I and II compared, species not given.
Source text: However, it also appeared that this improvement with regard to compound II could be fully attributed to its reduced bioavailability. […] Poor activity was also observed after oral administration (by gavage) of the compound to anaesthetized cats. Substitution with C1 at the 4- position in the benzothiophene nucleus, thus reduces oral activity.
as §2

Data set [1] is described as follows: Plasma drug levels in multiple dose studies in rats. The conditions noted are these: compared with an equivalent dose of compound II.
For another data set, the system named is volunteers. The data set is described as follows: Clinical Phase I studies, oral administration to volunteers.
Source text: as §1

Where [2] appears, read: oral administration, conscious dog, dose 25 mg/kg.

As to `COc1cc2sc(C(N)=NO)cc2c(Cl)c1OC` [III], in the data set with conscious dog (conscious dogs, oral administration, doses up to and including 50 mg/kg), the “increases of left ventricular contractility (LV dP/dt)” value is recorded as “Only modest increases”. Besides, in the data set on conscious dog (dose not stated), the emesis and vomiting result is “did not cause emesis and vomiting”; the restlessness result is given as “restlessness was still observed”. In the data set with conscious dog (setting [2]), the emesis stood at 0 and the “increase in LV dP/dt (%)” value is listed as 10%. For the same compound, the “activity after oral administration (by gavage)” value in the data set with anaesthetized cat (anaesthetized cats) was “Poor activity”.
For `COc1cc2sc(C(=N)NO)cc2c(F)c1OC` [Compound I, 4-fluoro-N-hydroxy-5,6-dimethoxybenzo[b]thiophene-2-carboximidamide], in the data set with conscious dog (oral administration to conscious dogs), the “emetic effect compared with compound II” value was “less emetic than compound II”. Further, in the data set on conscious dog (setting [2]), the emesis is on record as 0, the “increase in LV dP/dt (%)” value was determined as 45% and the restlessness is recorded as 0. In addition, in the data set with conscious dog (oral dose 25 mg/kg), the “increases in LV dP/dt” value is recorded as “marked increases” and the vomiting entry was “no significant vomiting”. Further, the “potency at increasing left ventricular contractility (LV dP/dt)” value with anaesthetized cat is “approximately equipotent”. Besides, the plasma drug levels entry in data set [1] is listed as “higher”.
Regarding `COc1cc2cc(C(N)=NO)sc2cc1OC` [II], the “doses at which the compound consistently produces vomiting and restlessness” value in the data set on conscious dog (administered orally to conscious restrained dogs) was > 10 mg/kg. Further, in the data set on conscious dog (setting [2]), the “increase in LV dP/dt (%)” value is listed as 50-100* %. Also, in the data set with anaesthetized cat, the “potency at increasing left ventricular contractility (LV dP/dt)” value was “approximately equipotent”. Besides, the nausea and vomiting result with volunteers is “nausea and vomiting were also observed”.
